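GI50 = concentration required for 50% inhibition of growth. TGI denotes the concentration required for complete inhibition of growth.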
How the values were obtained:
Assay in all cases: NCI anticancer screen, dose series, 384-well format
[1] = test system: ACHN renal
[2] = test system: MCF7 breast
[3] = test system: UACC-257 melanoma
[4] = test system: HCT-116 colon
[5] = test system: MDA-MB-435 melanoma
[6] = test system: BT-549 breast
[7] = test system: MALME-3M melanoma
[8] = test system: RXF 393 renal
[9] = test system: RPMI-8226 leukemia
[10] = test system: HL-60(TB) leukemia
[11] = test system: UO-31 renal
[12] = test system: NCI-H23 lung
[13] = test system: OVCAR-8 ovarian
[14] = test system: NCI-H460 NSCLC
[15] = test system: NCI/ADR-RES ovarian
[16] = test system: OVCAR-4 ovarian
[17] = test system: UACC-62 melanoma
[18] = test system: SF-268 CNS
[19] = test system: K-562 leukemia
[20] = test system: A498 renal
[21] = test system: SN12C renal
[22] = test system: SW-620 colon
[23] = test system: HS 578T breast
[24] = test system: SK-MEL-5 melanoma
[25] = test system: IGROV1 ovarian
[26] = test system: CAKI-1 renal
[27] = test system: COLO 205 colon
[28] = test system: SF-295 CNS
[29] = test system: KM12 colon
[30] = test system: M14 melanoma
[31] = test system: MOLT-4 leukemia
[32] = test system: SR leukemia
[33] = test system: NCI-H322M lung
[34] = test system: SK-MEL-28 melanoma
[35] = test system: SNB-75 CNS
[36] = test system: HCC-2998 colon
[37] = test system: PC-3 prostate
[38] = test system: HOP-92 NSCLC
[39] = test system: TK-10 renal
[40] = test system: DU-145 prostate
[41] = test system: SF-539 CNS
[42] = test system: HT29 colon
[43] = test system: T-47D breast
[44] = test system: HCT-15 colon
[45] = test system: CCRF-CEM leukemia
[46] = test system: NCI-H226 lung
[47] = test system: SK-OV-3 ovarian
[48] = test system: EKVX NSCLC
[49] = test system: OVCAR-3 ovarian
[50] = test system: MDA-MB-231 breast
[51] = test system: U251 glioblastoma
[52] = test system: 786-0 renal
[53] = test system: LOX IMVI melanoma
[54] = test system: SNB-19 CNS
[55] = test system: HOP-62 NSCLC
[56] = test system: NCI-H522 lung
[57] = test system: A549 NSCLC
[58] = test system: MDA-MB-468 breast

`CN(C)C(=O)[C@H](O)[C@H](Cc1ccccc1)NC(=O)c1cc2cc(Cl)ccc2[nH]1` showed a GI50 [1] of 28.4 µM, a TGI [1] of 74.3 µM and a GI50 [2] of 17.8 µM. The TGI [2] was 43 µM, the GI50 [3] was 20.5 µM and the TGI [3] was 37 µM. It also gave a GI50 [4] of 22 µM, a TGI [4] of 66.5 µM and a GI50 [5] of 38.3 µM. The TGI [5] was over 100 µM, the GI50 [6] was 20.5 µM and the TGI [6] was 47.8 µM. It also gave a GI50 [7] of 21.2 µM, a TGI [7] of 55.4 µM and a GI50 [8] of 20.7 µM. It also gave a TGI [8] of 54.8 µM, a GI50 [9] of 13.3 µM and a TGI [9] of 26.3 µM. For the same compound, the GI50 [10] was 16.6 µM, the TGI [10] was 30.5 µM and the GI50 [11] was 31.1 µM. The TGI [11] was 92 µM, the GI50 [12] was 28.1 µM and the TGI [12] was 77.5 µM. The GI50 [13] was 36.4 µM, the TGI [13] was over 100 µM and the GI50 [14] was 19.2 µM. The TGI [14] was 36.2 µM, the GI50 [15] was 27.3 µM and the TGI [15] was 70.6 µM. It also gave a GI50 [16] of 32 µM, a TGI [16] of 89.9 µM and a GI50 [17] of 18.4 µM. It also gave a TGI [17] of 41 µM, a GI50 [18] of 22.2 µM and a TGI [18] of 50.2 µM. It also gave a GI50 [19] of 20.2 µM, a TGI [19] of 44.9 µM and a GI50 [20] of 26.7 µM. It also gave a TGI [20] of 61 µM, a GI50 [21] of 25.9 µM and a TGI [21] of 77 µM. The GI50 [22] was 25.3 µM, the TGI [22] was 57.1 µM and the GI50 [23] was 25.6 µM. The TGI [23] was 59.3 µM, the GI50 [24] was 15.6 µM and the TGI [24] was 29.4 µM. The GI50 [25] was 25.8 µM, the TGI [25] was 64.8 µM and the GI50 [26] was 25.1 µM. For the same compound, the TGI [26] was 77.8 µM, the GI50 [27] was 41.3 µM and the TGI [27] was over 100 µM. The GI50 [28] was 21.8 µM, the TGI [28] was 44.2 µM and the GI50 [29] was 20.8 µM. It also gave a TGI [29] of 50.9 µM, a GI50 [30] of 23.4 µM and a TGI [30] of 55.6 µM. It also gave a GI50 [31] of 14.4 µM, a TGI [31] of 27.7 µM and a GI50 [32] of 19.5 µM. The TGI [32] was 33.7 µM, the GI50 [33] was 28.1 µM and the TGI [33] was 67.7 µM. For the same compound, the GI50 [34] was 31.2 µM, the TGI [34] was 88.4 µM and the GI50 [35] was 31.2 µM. It also gave a TGI [35] of over 100 µM, a GI50 [36] of 15.4 µM and a TGI [36] of 31.8 µM. It also gave a GI50 [37] of 21.3 µM, a TGI [37] of 46.7 µM and a GI50 [38] of 26.9 µM. The TGI [38] was 65.8 µM, the GI50 [39] was 25.1 µM and the TGI [39] was 67.9 µM. For the same compound, the GI50 [40] was 30.7 µM, the TGI [40] was 91.7 µM and the GI50 [41] was 28.3 µM. The TGI [41] was 72.3 µM, the GI50 [42] was 21.8 µM and the TGI [42] was 49.1 µM. For the same compound, the GI50 [43] was 26.9 µM, the TGI [43] was 99.6 µM and the GI50 [44] was 27.5 µM. The TGI [44] was 74.7 µM, the GI50 [45] was 17.9 µM and the TGI [45] was 32.7 µM. It also gave a GI50 [46] of 23.1 µM, a TGI [46] of 57.5 µM and a GI50 [47] of 32.9 µM. The TGI [47] was over 100 µM, the GI50 [48] was 32.7 µM and the TGI [48] was 97.3 µM. The GI50 [49] was 16.5 µM, the TGI [49] was 31.5 µM and the GI50 [50] was 27 µM. For the same compound, the TGI [50] was over 100 µM, the GI50 [51] was 32.7 µM and the TGI [51] was 96.8 µM. For the same compound, the GI50 [52] was 20.5 µM, the TGI [52] was 51.1 µM and the GI50 [53] was 20.3 µM. It also gave a TGI [53] of 36.1 µM, a GI50 [54] of 34.8 µM and a TGI [54] of over 100 µM. The GI50 [55] was 22.6 µM, the TGI [55] was 51.7 µM and the GI50 [56] was 22.6 µM. For the same compound, the TGI [56] was 58.2 µM, the GI50 [57] was 27.3 µM and the TGI [57] was 77 µM. The GI50 [58] was 19.1 µM and the TGI [58] was 36.1 µM.

From PubChem BioAssay (NCI)
